Experimental data: patent US12398375B2, “Methods for improved poxvirus yields” (priority 2018, dated 2025)

How the values were obtained:
[1] = tested on: MYXV expressing a GFP reporter gene (vMyx-GFP) in human A549 cells; assay: MYXV reporter gene (GFP) expression in human A549 cells, fluorescence microscopy; assay type: cell-based, Myxoma virus; details: human A549 cells pre-treated 1 h with different concentrations; vMyx-GFP MOI 1.0, 0.1 or 0.01; images at 48 h and 72 h post infection
[2] = tested on: HeLa cells; details: cited from earlier work
[3] = tested on: vMyx-GFP in human A549 cells; assay: MYXV progeny virus titration assay (A549 infection, titrated on RK13 cells); assay type: cell-based, Myxoma virus; details: for levels of progeny virus (MYXV titers): A549 cells
[4] = tested on: VACV expressing GFP (VACV-GFP) in human A549 cells; assay type: cell-based, vaccinia virus
[5] = tested on: VACV-GFP in human A549 cells; assay type: cell-based, vaccinia virus
[6] = molecular target: CRM1 (Homo sapiens, UniProt O14980); details: reported (Dickmanns et al. 2015); cited from earlier work
CRM1, sequence (O14980 whole entry): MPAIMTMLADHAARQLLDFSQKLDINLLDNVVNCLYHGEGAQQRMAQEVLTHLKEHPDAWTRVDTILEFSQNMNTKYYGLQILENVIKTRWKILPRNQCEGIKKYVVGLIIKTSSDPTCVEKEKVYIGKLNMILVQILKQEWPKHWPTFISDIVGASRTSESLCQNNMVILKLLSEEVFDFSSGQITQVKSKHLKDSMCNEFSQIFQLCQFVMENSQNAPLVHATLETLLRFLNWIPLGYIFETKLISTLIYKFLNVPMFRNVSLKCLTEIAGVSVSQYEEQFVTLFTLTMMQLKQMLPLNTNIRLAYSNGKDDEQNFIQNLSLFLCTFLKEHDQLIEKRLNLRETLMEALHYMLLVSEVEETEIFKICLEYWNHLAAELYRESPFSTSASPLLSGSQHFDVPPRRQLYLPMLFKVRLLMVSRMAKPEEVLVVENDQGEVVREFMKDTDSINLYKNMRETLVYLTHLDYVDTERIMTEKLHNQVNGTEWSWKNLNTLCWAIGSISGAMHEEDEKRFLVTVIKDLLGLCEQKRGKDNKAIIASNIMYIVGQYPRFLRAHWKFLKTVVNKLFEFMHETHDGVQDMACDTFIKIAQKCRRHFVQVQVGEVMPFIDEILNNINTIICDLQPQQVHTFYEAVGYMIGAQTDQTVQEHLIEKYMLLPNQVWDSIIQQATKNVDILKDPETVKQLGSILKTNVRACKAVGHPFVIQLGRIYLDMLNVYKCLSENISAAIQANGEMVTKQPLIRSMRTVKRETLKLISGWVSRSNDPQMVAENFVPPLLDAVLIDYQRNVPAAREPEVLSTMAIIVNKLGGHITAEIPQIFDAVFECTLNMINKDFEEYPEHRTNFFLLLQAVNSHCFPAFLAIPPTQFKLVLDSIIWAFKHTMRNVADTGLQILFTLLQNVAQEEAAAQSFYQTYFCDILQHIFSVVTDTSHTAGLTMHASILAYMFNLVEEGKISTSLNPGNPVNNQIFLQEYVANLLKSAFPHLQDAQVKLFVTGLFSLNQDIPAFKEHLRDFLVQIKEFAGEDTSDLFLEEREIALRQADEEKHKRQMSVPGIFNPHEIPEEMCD

[7] = vMyx-GFP MOI 0.1 or 0.01, harvested after 48 h or 72 h, FIGS. 6A-6B
[8] = vMyx-GFP MOI 1.0, 0.1 or 0.01, inhibitor 0.001, 0.01 or 0.1 μM, harvested after 48 h, FIGS. 5A-5D

Compound | MYXV replication, as indicated by reporter gene expression (GFP fluorescence) [1] | concentration that arrests cells at the G1 phase [2] [pg/mL] | levels of progeny virus (MYXV titers) [3, 7] | levels of progeny virus (MYXV titers) [3, 8] | progeny virus production enhancement compared to the other tested drugs ([3]; FIGS. 6A and 6B, MOI 0.1 or 0.01, 48 h or 72 h) | VACV replication, as indicated by reporter gene expression (GFP fluorescence) [4] | levels of progeny virus (VACV titers) [5] | concentration that shuts down CRM1-mediated nuclear protein export [6]
CCC(=C/[C@H](C)C/C=C/C(C)=C/[C@@H](C)C(=O)[C@@H](C)[C@H](O)[C@@H](C)C/C(C)=C/C(=O)O)/C=C/[C@@H]1OC(=O)C=C[C@@H]1C [Leptomycin B] | enhanced MYXV replication | 50 | higher levels of progeny virus | higher levels of progeny virus | highest progeny virus production enhancement | enhanced VACV replication | higher levels of progeny virus | 
CC(/C=C/C[C@@H](C)/C=C(C)/C=C/[C@@H]1OC(=O)C=C[C@@H]1C)=C\[C@@H](C)C(=O)[C@@H](C)[C@H](O)[C@@H](C)C/C(C)=C/C(=O)O [Leptomycin A] | enhanced myxoma virus (MYXV) replication |  | higher levels of progeny virus | higher levels of progeny virus |  | enhanced VACV replication | higher levels of progeny virus | 
CC(/C=C/C1CC=CC(=O)O1)=C\C(C)C/C=C/C(C)=C/C(C)C(=O)C(C)C(O)C(C)C/C(C)=C/C(=O)O (stereo not shown) [Anguinomycin A] | enhanced MYXV replication |  | higher levels of progeny virus | higher levels of progeny virus |  |  |  | 
Anguinomycin |  |  |  |  |  |  |  | above 10 nM
Ratjadone A | enhanced MYXV replication |  | higher levels of progeny virus | higher levels of progeny virus |  |  |  | 
